Patent publication US20160287549A1, “NOVEL METHODS FOR TREATING NEURODEGENERATIVE DISEASES” (GENZYME CORPORATION, priority 2013, published 2016)

Experiments:
[1] = system: L1210 murine leukemia; conditions: cited from earlier work
[2] = system: murine colon 38 tumor model; conditions: tissue-specific modulation of uridine nucleotide pools; cited from earlier work
[3] = target: PfDHODH (Plasmodium falciparum, UniProt Q08210); conditions: cited from earlier work
[4] = target: hDHODH (Homo sapiens, UniProt Q02127); conditions: cited from earlier work
Sequence of hDHODH (Q02127 whole entry): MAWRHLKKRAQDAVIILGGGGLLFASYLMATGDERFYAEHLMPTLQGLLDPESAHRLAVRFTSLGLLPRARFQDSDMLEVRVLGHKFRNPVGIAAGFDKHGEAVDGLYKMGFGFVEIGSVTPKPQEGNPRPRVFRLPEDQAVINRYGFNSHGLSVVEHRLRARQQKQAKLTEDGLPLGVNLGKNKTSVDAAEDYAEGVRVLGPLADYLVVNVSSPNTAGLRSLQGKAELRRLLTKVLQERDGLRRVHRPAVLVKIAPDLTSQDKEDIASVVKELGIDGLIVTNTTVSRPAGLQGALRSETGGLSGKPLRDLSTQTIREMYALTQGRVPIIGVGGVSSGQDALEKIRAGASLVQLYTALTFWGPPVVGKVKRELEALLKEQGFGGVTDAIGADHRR

[5] = system: SOD1-G93A mice; assay: Survival of symptomatic SOD1-G93A ALS mice; assay type: in vivo
Procedure: SOD1-G93A transgenic mice (also known as G93A-SOD1 mice) are currently the best available model to test experimental therapeutics for the treatment of ALS. […] For example, the transgenic mice present with progressive muscular atrophy and weakness. Neuroinflammation, demyelination, and motor neuron death are observed in the mice, and ultimately, the mice become paralyzed and have a shortened lifespan.
To evaluate the effectiveness of DHODH inhibitors in treating ALS, 10 mg/kg of teriflunomide was administered by oral gavage to 82 day old SOD1-G93A male mice.
(§1) In a second experiment, 20 mg/kg of teriflunomide was administered to 82 day old SOD1-G93A male and female mice (n=14/sex).
Male SOD1-G93A mice (n=14) were administered W19 (subcutaneous injection at 10 mg/kg for 5 consecutive days and then every 10 mg/kg every 2 weeks thereafter) was administered starting at 82 days of age. After 7 days, peripheral blood was collected and lymphocyte depletion was evaluated using flow cytometry.
Transgenic male (n=84) and female littermate (n=28) mice that express the mutant SOD1^G93A transgene at high-levels were divided to achieve cohort, sibling and sex matching amongst groups for these studies (Scott, S., et al. “Design, Power, and Interpretation of Studies in the Standard Murine Model of ALS.” Amyotrophic Lateral Sclerosis 9.1 (2008): 4-15. SCOPUS. Web. 18 Nov. 2013). Mutant SOD1 gene copy number and SOD1 protein expression were confirmed by PCR and western blot analysis. Animals were housed under light:dark (12:12 h) cycle and provided with food and water ad libitum. All procedures were performed using protocols approved by Genzyme Corporation's Institutional Animal Care and Use Committees.
Mice were scored into the following phases: presymptomatic (Pre-SYMP)=no visible motor abnormalities (i.e., normal hind limb splay); Symptomatic (SYMP)=abnormal hindlimb splay; End stage (ES)=onset of limb paralysis (typically hindlimb); and Moribund (MB)=unable to right themselves within 30 sec after being placed on their back.

[6] = system: SOD1-G93A mice; assay: Grip strength performance test in SOD1-G93A mice; assay type: in vivo; conditions: for grip strength loss (percent decline from baseline): 20 mg/kg oral gavage, baseline at 82 days, control 46.14-67.38% loss
Procedure: as §1
Testing of motor function using a grip strength device (Columbus Instruments, Columbus, Ohio) began at 60-70 days of age as previously described (Dodge, J. C. et al. (2008) 16:1056-1064). Each weekly session consisted of 4 tests per animal. Data shown represent percent decline in strength from baseline. Baseline measurements were made at 82 days of age. Percent reduction is grip strength is shown for vehicle treated mice scored as ES and age matched sibling mice treated with teriflunomide.

[7] = cited from earlier work

Sequence of PfDHODH (Q08210 24-569): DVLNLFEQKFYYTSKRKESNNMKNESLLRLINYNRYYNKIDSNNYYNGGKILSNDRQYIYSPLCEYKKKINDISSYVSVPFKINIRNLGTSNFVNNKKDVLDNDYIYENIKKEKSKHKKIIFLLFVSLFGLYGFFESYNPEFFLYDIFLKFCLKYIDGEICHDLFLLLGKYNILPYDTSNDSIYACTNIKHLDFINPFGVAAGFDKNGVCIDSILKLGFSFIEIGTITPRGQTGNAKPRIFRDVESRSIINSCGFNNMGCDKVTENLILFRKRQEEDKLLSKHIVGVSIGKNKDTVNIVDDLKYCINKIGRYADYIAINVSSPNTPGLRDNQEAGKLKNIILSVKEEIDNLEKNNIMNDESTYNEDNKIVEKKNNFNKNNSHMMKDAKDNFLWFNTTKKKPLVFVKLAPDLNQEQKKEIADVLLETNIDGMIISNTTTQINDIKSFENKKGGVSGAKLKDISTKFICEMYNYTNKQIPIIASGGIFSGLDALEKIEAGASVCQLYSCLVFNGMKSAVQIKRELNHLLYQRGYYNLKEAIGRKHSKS

Cc1c(-c2ccc(-c3ccccc3F)cc2)nc2ccc(F)cc2c1C(=O)O [Brequinar]
anticancer activity [1]: exhibits anticancer activity
effect on 5-fluorouracil antitumor activity [2]: potentiates 5-fluorouracil antitumor activity

CCOC(=O)C(=CNc1cccc(C(=O)OCC)c1)C(=O)OCC [Compound 58]
PfDHODH(50 μM) [3]: 0 ± 4
hDHODH(50 μM) [4]: 5 ± 2

CCOC(=O)C(=CNc1ccc(C(=O)OCC)cc1)C(=O)OCC [Compound 59]
PfDHODH(50 μM) [3]: 15 ± 4
hDHODH(50 μM) [4]: 4 ± 2

CCOC(=O)C(C#N)=CNc1ccc(C(=O)OCC)cc1 [Compound 60]
PfDHODH(50 μM) [3]: 2 ± 4
hDHODH(50 μM) [4]: 2 ± 2

C/C(O)=C(\C#N)C(=O)Nc1ccc(C(F)(F)F)cc1 [teriflunomide, (Z)-2-cyano-3-hydroxy-but-2-enoic acid-(4′-trifluoromethylphenyl)-amide]
increase in survival as compared to control ([5]; 10 mg/kg oral gavage, 82 day old male SOD1-G93A mice): 7 days
median survival ([5]; 10 mg/kg oral gavage, 82 day old male SOD1-G93A mice, control 127 days, p<0.005): 134 days
median survival ([5]; 20 mg/kg oral gavage, 82 day old male and female SOD1-G93A mice, control 130 days, p<0.04): 146.5 days
increase in median survival as compared to control ([5]; 20 mg/kg, 82 day old male and female SOD1-G93A mice): 16.5 days
grip strength loss (percent decline from baseline) ([6]; female SOD1-G93A mice): −24.06%
grip strength loss (percent decline from baseline) ([6]; male SOD1-G93A mice): −20.14%
effect on muscle strength loss ([6]; 20 mg/kg, male and female SOD1-G93A mice): significantly slowed muscle strength loss
solubility in acetone ([7]; acetone): sparingly soluble
solubility in ethanol ([7]; ethanol): slightly soluble
solubility in isopropanol ([7]; isopropanol): very slightly soluble
solubility in polyethylene glycol ([7]; polyethylene glycol): slightly soluble
solubility in water ([7]; water): practically insoluble
